Changes are numbered by the printed parent chain. Read-outs that look alike come from different tables or passages of the source.
What was measured:
Src^32KΔC = target: T1, Src^32KΔC (Mus musculus, UniProt P05480); experiment: Competition nucleotide displacement assay (Mant-ADP, fluorescence anisotropy); type: binding; settings: 40 μM Src^32KΔC, 40 μM Mant-ADP; read-out: Ki (equilibrium inhibition constant)
T1 construct: mouse Src^85-523 (Src^32KΔC); GST (cleaved yes); made in house; host or cells: baculovirus-infected Sf9 insect cells
Protocol: Figure 2 Itk adopts a Src-like autoinhibited conformation. (a) Competition nucleotide displacement assay for Src^32KΔC. 40 μM Src^32KΔC was incubated with 40 μM Mant-ADP until equilibrium was established. Unlabelled ADP or AMPPNP was titrated into the reaction and fluorescence anisotropy monitored. […] (b) Small angle X-ray scattering curves for Itk^32K (cyan), Src^32K (magenta), Src^32KΔC (blue), and Src^32K R175L (green). […] (d) Table of physical parameters obtained from the scattering curves for Itk^32K, Src^32K, Src^32KΔC, and Src^32K R175L. (e)Ab initio model of Itk^32K and docking of autoinhibited Src (2SRC.pdb) into the molecular envelope. Two orientations of the envelope are shown for clarity. (f) Ab initio molecular envelope for Src^32KΔC illustrates the fit of the crystal structure of autoinhibited Src. TEXT PRINTED IN THE PICTURE: (a) ADP: Src^32KΔC Ki (mM): 0.03 ± 0.008 | (a) ANP: Src^32KΔC Ki (mM): 0.69 ± 0.140
(§1) The binding constants for ADP and AMPPNP were determined for Src and Itk proteins by fluorescence anisotropy, using 2′/3′-Mant-labelled nucleotides (Jena Bioscience). Increasing concentrations of Itk^32K, Itk^L351A or Src^32K were incubated with 40 μM Mant-nucleotide in 30 mM Tris pH 7.5, 200 mM NaCl, 5 mM MgCl2, and 1 mM TCEP. Measurements were made with a Perkin Elmer LS50B fluorimeter (λex = 355 nm, λem = 447 nm) at 20 °C. For each data point 50–60 measurements, each with an integration time of 1 s, were averaged. For competition nucleotide displacement assays, 40–80 μM of protein was incubated with 40 μM Mant-ADP until equilibrium was established. Unlabelled nucleotide was titrated into the reaction and fluorescence anisotropy monitored. The equilibrium inhibition constant for the unlabelled nucleotide was calculated from the fitted curve.

Itk^32K = target: T2, Itk^32K (Homo sapiens, UniProt Q08881); experiment: as above; type: binding
T2 construct: Human Itk^171–620 (Itk^32K); GST (cleaved yes); made in house; host or cells: baculovirus-infected Sf9 insect cells
T2 sequence (Q08881 171-620): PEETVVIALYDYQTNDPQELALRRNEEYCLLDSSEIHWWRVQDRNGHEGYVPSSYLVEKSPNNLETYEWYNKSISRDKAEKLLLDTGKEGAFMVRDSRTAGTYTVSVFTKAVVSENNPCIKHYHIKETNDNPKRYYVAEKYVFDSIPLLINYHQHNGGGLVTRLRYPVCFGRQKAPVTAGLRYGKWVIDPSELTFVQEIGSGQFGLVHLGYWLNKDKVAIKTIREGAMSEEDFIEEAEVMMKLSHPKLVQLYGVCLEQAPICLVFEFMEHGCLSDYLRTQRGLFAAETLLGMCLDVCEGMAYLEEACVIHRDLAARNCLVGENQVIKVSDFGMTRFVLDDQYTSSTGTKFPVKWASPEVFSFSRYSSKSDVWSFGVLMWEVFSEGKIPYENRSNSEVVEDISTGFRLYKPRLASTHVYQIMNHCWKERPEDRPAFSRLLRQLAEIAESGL
Protocol: Figure 1 Autoinhibited Itk and Src kinases preferentially bind ADP. (a) Schematic of constructs evaluated in this study. Itk^32K, Src^32K, and Src^32KΔC contain the conserved module of SH3, SH2, and kinase (^32K) domains. Src^32K was truncated by […] to remove its C-terminal tail (inclusive of the Y527 phosphorylation site), generating a construct we refer to as Src^32KΔC (ΔC-tail). (b) Competition nucleotide displacement assay for Itk^32K. 40 μM Itk^32K was incubated with 40 μM Mant-ADP until equilibrium was established. Unlabelled ADP or AMPPNP was titrated into the reaction and fluorescence anisotropy monitored. Comparison of the equilibrium inhibition constants (K i) gives an indication of the relative strength of nucleotide binding. […] (c) Competition nucleotide displacement assay for Src^32K. 40 μM tail-phosphorylated Src^32K (pY527) or doubly phosphorylated Src^32K pY416 (pY527) was incubated with 40 μM Mant-ADP until equilibrium was established. Unlabelled ADP or AMPPNP was titrated into the reaction and fluorescence anisotropy monitored. Solid lines correspond to Src^32K, dashed lines to Src^32K pY416. AMPPNP binds to Src^32K with 20-fold weaker affinity than ADP. […] (d) Omit map showing clear electron density for ADP and a single magnesium ion in the nucleotide-binding pocket of Src. The magnesium is coordinated by Asn391, Asp404, and the α- and β- phosphates of ADP. The β-phosphate is directly coordinated by the guanidinium side chain of Arg388. […]
Since the concentration of ATP in the cell is typically higher than ADP[33],[34], we performed nucleotide competition assays in order to determine which nucleotide is bound in vivo. We measured the concentrations of ADP or AMPPNP required to displace Mant-ADP. […]
The binding constants for ADP and AMPPNP were determined for Src and Itk proteins by fluorescence anisotropy, using 2′/3′-Mant-labelled nucleotides (Jena Bioscience). […] Unlabelled nucleotide was titrated into the reaction and fluorescence anisotropy monitored. The equilibrium inhibition constant for the unlabelled nucleotide was calculated from the fitted curve.

Src^32K = target: T3, Src^32K (Mus musculus, UniProt P05480); experiment: Fluorescence anisotropy binding of Mant-labelled nucleotides; settings: direct Mant-nucleotide binding
T3 construct: mouse Src^85-535 (Src^32K); GST (cleaved yes); made in house; host or cells: baculovirus-infected Sf9 insect cells, co-expressed with human Csk
Source text: To characterise the nucleotide binding of Itk and Src, we purified recombinant wild type and mutant constructs of Itk and Src containing their respective SH3, SH2, and kinase domains (from here on referred to as Itk^32K, Src^32K, and Src^32KΔC, Fig. 1a). We confirmed the mass and homogeneity of isolated species by high-resolution anion exchange chromatography, intact mass spectrometry, and Western blotting with phospho-specific antibodies (Supplementary Figs 1–3). We performed fluorescence anisotropy measurements using Mant-labelled nucleotides. […] To avoid autophosphorylation during the course of the titration, we used the non-hydrolysable ATP analogue AMPPNP. […] Src^32K bound ADP approximately 6-fold more tightly than AMPPNP (Supplementary Fig. 4d).
Human Itk^171–620 (Itk^32K), mouse Src^85-535 (Src^32K), and mouse Src^85-523 (Src^32KΔC) as well as their respective point mutants were expressed as GST fusions in baculovirus-infected Sf9 insect cells. For the generation of Tyr527-phosphorylated Src^85-535, the protein was co-expressed with human Csk using pFastBac Dual (Invitrogen). Proteins were purified by sequential glutathione-sepharose affinity chromatography, TEV cleavage, high-resolution anion exchange, and size exclusion chromatography in a final buffer of 50 mM Tris, pH 7.5, 200 mM NaCl, 1 mM TCEP, 1% (v/v) glycerol.
as §1

Itk^32K L351A = target: T4, Itk^32K L351A (Homo sapiens, UniProt Q08881, L351A); experiment: as above
T4 construct: Human Itk^171–620 (Itk^32K); GST (cleaved yes); made in house; host or cells: baculovirus-infected Sf9 insect cells
T4 sequence (Q08881 171-620 L351A): T2 sequence (Q08881 171-620) with L181A
Source text: (§2) Figure 3 An allosteric switch triggers nucleotide exchange. (a) Hydrophobic stack conservation in Src family kinases. The table illustrates the amino acid identity at each of the three positions in the hydrophobic stack in addition to the invariant tryptophan (Trp260 in Src) for all Src family kinase members. The positions are presented according to their N- to C-terminal order in the primary sequences. Where it was not possible to unambiguously determine the identity of the amino acid contributed by the SH2-kinase variable linker (V3), the residue is denoted by a question mark. (b) Small angle X-ray scattering of Itk^32K L351A (black). The scattering curve for wild type Itk^32K (cyan) is overlaid for comparison. […] (c) Rigid body modelling of Itk^32K L351A and fit to ab initio molecular envelope. Displacement of both the SH3 and SH2 domains is required for a good fit to the experimental scattering curve. (d) Determination of the binding constants of Itk^32K L351A for nucleotides by fluorescence anisotropy. […] (e) Determination of the thermal stabilities and relative binding affinities of non-phosphorylated Src^32KΔC L255A for nucleotides by differential scanning fluorimetry. […] TEXT PRINTED IN THE PICTURE: (d) Mant-ADP: Itk^32K L351A (non-phos) Kd (μM): 21.0 ± 2.1 | (d) Mant-ATP: Itk^32K L351A (non-phos) Kd (μM): 31.7 ± 2.7 | (e) ADP: Src^32KΔC L255A (non-phos) [nuc]1/2 (μM): 310 ± 20; Src^32KΔC L255A (non-phos) Tm^max (°C): 52.9; Src^32KΔC L255A (non-phos) ΔTm^max (°C): + 6.8 | (e) ATP: Src^32KΔC L255A (non-phos) [nuc]1/2 (μM): 100 ± 10; Src^32KΔC L255A (non-phos) Tm^max (°C): 54.2; Src^32KΔC L255A (non-phos) ΔTm^max (°C): + 8.1 | (e) apo: Src^32KΔC L255A (non-phos) Tm^max (°C): 46.1
To establish whether hydrophobic stack disassembly triggers a switch in nucleotide binding of the kinase domain, we measured the binding of both unphosphorylated and activation loop phosphorylated (pY511) Itk^32K L351A to ADP and ATP.
as §1

Src^32KΔC L255A = target: T5, Src^32KΔC L255A (Mus musculus, UniProt P05480, L257A); experiment: Differential scanning fluorimetry (thermal stability vs nucleotide concentration); type: binding
T5 construct: mouse Src^85-523 (Src^32KΔC); GST (cleaved yes); made in house; host or cells: baculovirus-infected Sf9 insect cells
Source text: as §2
Due to limiting protein concentrations, we were unable to obtain a binding curve by fluorescence anisotropy, so we instead used thermal stability measurements to investigate its nucleotide-binding properties. Determination of accurate binding constants from thermal stability measurements requires knowledge of the enthalpy of unfolding. However, for a given protein, the enthalpy of unfolding is independent of the ligand being tested, so comparison of the concentrations of nucleotide required for half maximal stabilisation is valid.
Thermal stabilities as a function of nucleotide concentration were measured by differential scanning fluorimetry (DSF). Samples contained 0.1 mg/ml protein in 50 mM Tris pH 7.5, 150 mM NaCl, 1 mM TCEP, and 5 mM MgCl2 with ADP, ATP, or AMPPNP concentrations ranging from 0–16 mM. Samples were measured in triplicate using a BioRad iQ™5 Multicolor Real-Time PCR Detection System. For detection of phosphorylated protein, samples were diluted and 1 ng and 15 ng were loaded to SDS-PAGE for Src and Itk proteins, respectively. Phosphorylation was measured by immunoblot.

[1] = Src^32KΔC L255A non-phosphorylated, DSF
[2] = Itk^32K L351A non-phosphorylated, read-out: Kd

Nc1ncnc2c1ncn2[C@@H]1O[C@H](COP(=O)(O)OP(=O)(O)NP(=O)(O)O)[C@@H](O)[C@H]1O [AMPPNP]
Ki (Src^32KΔC): 690 ± 140 µM
Ki (Itk^32K; 40 μM Itk^32K, 40 μM Mant-ADP, read-out: Ki (equilibrium inhibition constant)): 7.9 mM
fold difference in Ki, AMPPNP weaker than ADP (Itk^32K; Itk^32K, displacement of Mant-ADP): ~41 fold
fold difference in affinity, ADP tighter than AMPPNP (Src^32K): approximately 6 fold

Nc1ncnc2c1ncn2[C@@H]1O[C@H](COP(=O)(O)OP(=O)(O)OP(=O)(O)O)[C@@H](O)[C@H]1O [ATP]
Kd (Itk^32K L351A; activation loop-phosphorylated (pTyr511) Itk^32K L351A, read-out: Kd (binding constant)): 37 µM
additional thermal stability conferred by ATP over ADP (Src^32KΔC L255A; Src^32KΔC L255A non-phosphorylated): 1.3 °C
Tm^max (Src^32KΔC L255A; [1]): 54.2 °C
[nuc]1/2 (nucleotide concentration for half maximal stabilisation) (Src^32KΔC L255A; [1]): 100 ± 10 µM
relative binding of ATP versus ADP (Src^32KΔC L255A; Src^32KΔC L255A, from half maximal stabilisation concentrations): approximately three times better than ADP

Mant-ADP
Kd (Itk^32K L351A; [2]): 21 ± 2.1 µM

Mant-ATP
Kd (Itk^32K L351A; [2]): 31.7 ± 2.7 µM
